Laboratory results as given in patent US9518107B2, “Pharmaceutical compositions containing polypeptides derived from α-1 antitrypsin and methods of use thereof” (YISSUM RESEARCH DEVELOPMENT COMPANY OF THE HEBREW …, priority 2010, dated 2016).

What was measured:
Male CD1 mice = assay: Carrageenan-induced hind paw swelling; type: in vivo; conditions: UBE injected thirty minutes before carrageenan; swelling after 3 hours versus prior to carrageenan; FIG. 1
Method: Male CD1 mice were intravenously (i.v.) injected with the indicated doses of the UBE polypeptide having the sequence […] (SEQ ID NO:2). Thirty minutes thereafter, each animal was injected with carrageenan (50 μl of 3 mg/ml into each hindpaw). The animals were evaluated for the difference between the degree of swelling (mm) after 3 hours and prior to carrageenan injection.

female MRL/lpr mice = assay: Spontaneous lupus-like syndrome in MRL/lpr mice (Systemic Lupus Erythematosus model); type: in vivo
Method: MRL/lpr mice develop a lupus-like syndrome spontaneously. UBE (SEQ ID NO:2) (1 μg/kg) was administered to female MRL/lpr mice thrice a week, starting at age of 12 weeks. Urine was obtained by spontaneous urination and the levels of protein (mg/dl) and erythrocytes (cells/dl) in the urine were evaluated throughout the treatment period (4 weeks) using commercial sticks.
In order to determine the levels of anti-dsDNA antibodies, blood was obtained by cardiac puncture of the MRL/lpr mice after 4 weeks of UBE treatment, and the serum levels of anti-dsDNA antibodies were evaluated using a commercial ELISA kit.
Serum levels of anti-dsDNA antibodies were determined by ELISA with the aid of a commercial kit (Euroimmun, Lubeck, Germany) following the manufacturer's instructions and detection antibodies were purchased for use with same (Bethyl Laboratories, Montgomery, Tex., USA).
Quantitative histopathology analysis of the kidneys was also performed. The kidneys of the mice after 4 weeks of UBE treatment were removed, fixed in formalin, sliced, and stained by H&E and by periodic acid […] stain. Representative histophathologies of the glomeruli and tubulointerstitial areas in control versus UBE treated mice is shown FIGS. 7C and 7D, versus 7E and 7F at 2× and 20×, respectively. The quantitative histopathology analysis is presented in FIG. 7A and FIG. 7B, respectively.
To evaluate the effect of UBE on lymphocyte function in MRL/lpr mice, peripheral lymph nodes and spleen cells were isolated from the control and UBE-treated mice and subjected to FACS analysis probing for CD4, CD8 and B220 marker expression (FIG. 8). Peripheral lymph node cells were positively selected for CD3 expression and the percent of CD3+ cells, which were negative for CD4− and CD8− expression was evaluated. Representative results from control and UBE treated animals are shown in FIGS. 8A and 8B, respectively. […] Spleen cells were similarly evaluated and representative results from control and UBE treated animals are shown in FIGS. 8C and 8D, respectively.
In parallel, peripheral lymph node cells were positively selected for B220+ expression. Representative results from control and UBE treated animals are shown in FIGS. 8G and 8H, respectively. […] Spleen cells were similarly evaluated and representative results from control and UBE treated animals are shown in FIGS. 8I and 8J, respectively.

male MRL/lpr mice = assay: Advanced stage of Systemic Lupus Erythematosus in MRL/lpr mice; type: in vivo; conditions: 1 μg/kg thrice a week from age of 22 weeks, 22 days; FIG. 10
Method: UBE (SEQ ID NO: 2; 1 μg/kg) was administered to male MRL/lpr mice thrice a week, starting at age of 22 weeks. At this age the mice are acutely affected and show a high level of proteinuria. Urine was obtained by spontaneous urination and the animals' urinary protein levels (mg/dl) were evaluated throughout the treatment period (22 days) using a commercial stick.

peritoneal macrophages = assay: Oxidative burst of peritoneal macrophages (luminol luminescence, phorbol myristate acetate); type: cell-based, female C57BL/6 mice; conditions: 1 μg/ml UBE; FIG. 19
Method: Macrophages were harvested by peritoneal lavage of female C57BL/6 mice i.p. injected with thioglycolate. 0.2 ml cells (3×10^5/ml), luminol (200 μM), horseradish peroxidase (1.0 unit/ml) and UBE were suspended in Hank's balanced salt solution (HBSS) (final concentrations of the peptide in the reaction mixture are indicated in the figure). The reaction started by the addition of 1 μM phorbol myristate acetate. The reaction was performed in a 96-well plate. Luminescence was measured by Tecan spectrofluoro Plus.

Human CD4 cells = assay: Cytokine profile in human CD4+ cells activated with anti CD3 and anti CD28 antibodies (Multiplex); type: cell-based; conditions: UBE 100 ng/ml, 72 hours
Method: Human CD4 cells were MACS separated from blood of healthy donors using the immunomagnetic separation system of Miltenyi, in accordance with manufacturer instructions. Cells were incubated (each well contained 0.5×106/0.5 ml) with human IL2 (100 U/ml) and human anti CD3 antibodies (1 ug/ml) and human anti CD28 antibodies (1 ug/ml) with or without UBE (100 ng/ml) for 72 hours in a CO2 (6%) incubator at 37° C. in multiwall plates. Thereafter plates were centrifuged and supernatants were collected and stored at −20° C. until cytokine analysis was conducted. Cytokines were determined by Multiplex system (BioRad). *p<0.02, **p<0.006 using students t-test for comparison between UBE-treated and control cells.

Female NZBW/F1 mice = assay: Spontaneous lupus-like syndrome in NZBW/F1 mice (second SLE model); type: in vivo; conditions: FIG. 11B
[1] = after 4 weeks of UBE treatment, 1 μg/kg, FIG. 7

## SMPPIVRFDHPFLFIIFEEHTQSPLFVGKVVDPTHK (listed as Mus musculus) [UBE, 36-mer peptide corresponding to residues 378-413 of Mus musculus alpha-1-antitrypsin (serpin a1c)]
Male CD1 mice
  carrageenan-induced inflammation (hind paw swelling): significant reduction
Female MRL/lpr mice; 1 μg/kg thrice a week from age of 12 weeks, 4 weeks, FIG. 4
  proteinuria (urinary protein): significant reduction
Female MRL/lpr mice; 1 μg/kg thrice a week from age of 12 weeks, 4 weeks, FIG. 5
  urinary microhematuria: significant reduction
Female MRL/lpr mice; after 4 weeks of UBE treatment, 1 μg/kg, FIG. 6
  anti-dsDNA antibodies in the blood (serum, ELISA): significant reduction
Female MRL/lpr mice; [1]
  pathological score of the glomeruli (kidney histopathology): significant reduction
  pathological score of the tubulointerstitial areas (kidney histopathology): significant reduction
Female MRL/lpr mice; peripheral lymph nodes
  percent of B220+ cells, FACS: dramatically reduced
Female MRL/lpr mice; peripheral lymph nodes, FIG. 8E
  double negative CD4−CD8− cells (expressed as percent CD3+), FACS: dramatically reduced
Female MRL/lpr mice; spleen cells
  percent of B220+ cells, FACS: dramatically reduced
Female MRL/lpr mice; spleen cells, FIG. 8F
  double negative CD4−CD8− cells, FACS: dramatically reduced
Male MRL/lpr mice
  proteinuria (urinary protein): significant reduction
Peritoneal macrophages
  oxidative burst of peritoneal macrophages (luminescence): suppressed
Human CD4 cells; FIG. 22A-G
  inflammatory mediators overall (IL6, IL17A, IL21, IL22, IL23, IL31, IFNγ): overall trend in reduced inflammatory mediators
Human CD4 cells; FIG. 22D
  IL22 production: significantly reduced
Human CD4 cells; FIG. 22E
  IL23 production: significantly reduced
Human CD4 cells; FIG. 22F
  IL31 production: significantly reduced
Female NZBW/F1 mice; UBE 1 μg/kg
  proteinuria: reduced proteinuria in a significant manner
Female NZBW/F1 mice; UBE 3 μg/kg
  proteinuria: reduced proteinuria in a significant manner
